According to patent US20180148418A1, “AMIDO-SUBSTITUTED CYCLOHEXANE DERIVATIVES” (Bayer Pharma Aktiengesellschaft, priority 2015, published 2018):

Biological target: T1, TNKS1 (Homo sapiens, UniProt O95271)
T1 construct: purchased BPS Bioscience, San Diego, USA 80579 (TNKS1 Histone Ribosylation Assay Kit)
T1 sequence (O95271 1-1327): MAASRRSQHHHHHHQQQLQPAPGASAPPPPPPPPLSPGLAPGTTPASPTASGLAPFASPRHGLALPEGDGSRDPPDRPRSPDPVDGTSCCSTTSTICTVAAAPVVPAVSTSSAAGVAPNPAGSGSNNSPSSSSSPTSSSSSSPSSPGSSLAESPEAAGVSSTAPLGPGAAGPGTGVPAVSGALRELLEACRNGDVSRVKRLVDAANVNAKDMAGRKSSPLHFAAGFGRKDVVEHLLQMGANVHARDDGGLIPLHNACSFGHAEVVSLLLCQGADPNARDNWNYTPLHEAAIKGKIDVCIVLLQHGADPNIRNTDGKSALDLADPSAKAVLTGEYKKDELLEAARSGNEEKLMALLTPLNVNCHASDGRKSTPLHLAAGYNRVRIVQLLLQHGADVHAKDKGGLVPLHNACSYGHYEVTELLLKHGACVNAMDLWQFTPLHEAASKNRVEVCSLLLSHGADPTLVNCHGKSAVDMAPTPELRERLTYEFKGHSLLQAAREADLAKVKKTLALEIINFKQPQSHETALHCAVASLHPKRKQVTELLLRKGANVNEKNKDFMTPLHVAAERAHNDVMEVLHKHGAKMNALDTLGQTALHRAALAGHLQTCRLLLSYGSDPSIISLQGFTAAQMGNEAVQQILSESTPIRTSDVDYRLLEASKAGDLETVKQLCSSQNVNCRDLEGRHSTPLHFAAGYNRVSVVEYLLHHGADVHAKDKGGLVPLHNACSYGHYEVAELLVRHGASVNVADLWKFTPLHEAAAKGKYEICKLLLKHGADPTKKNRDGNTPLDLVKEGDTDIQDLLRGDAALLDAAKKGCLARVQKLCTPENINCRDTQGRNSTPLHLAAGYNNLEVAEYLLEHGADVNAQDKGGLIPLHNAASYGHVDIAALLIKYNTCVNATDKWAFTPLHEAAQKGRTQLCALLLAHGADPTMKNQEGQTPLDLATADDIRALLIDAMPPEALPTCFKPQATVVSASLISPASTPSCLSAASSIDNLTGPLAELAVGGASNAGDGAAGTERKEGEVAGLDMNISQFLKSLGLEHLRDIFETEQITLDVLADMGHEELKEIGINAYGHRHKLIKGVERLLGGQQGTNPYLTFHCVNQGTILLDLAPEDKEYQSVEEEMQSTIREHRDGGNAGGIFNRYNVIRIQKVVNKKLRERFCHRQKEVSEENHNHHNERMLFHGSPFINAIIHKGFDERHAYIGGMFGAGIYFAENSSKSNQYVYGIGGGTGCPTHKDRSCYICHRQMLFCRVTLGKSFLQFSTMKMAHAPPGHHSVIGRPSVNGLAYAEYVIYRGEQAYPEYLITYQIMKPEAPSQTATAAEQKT
Assay: TNKS1 Assay B (auto-parsylation, [3H]-NAD+ SPA)
Assay type: biochemical
Details: 6 nM TNKS1, auto-parsylation, over night at room temperature

`COCC(C)NC(=O)c1nc[nH]c1C(=O)N[C@H]1CC[C@H](C(=O)Nc2cc(C(F)(F)F)ccc2Cl)CC1` (stereo partly drawn) [Example 143, N^5-(trans-4-{[2-chloro-5-(trifluoromethyl)phenyl]carbamoyl}cyclohexyl)-N^4-(1-methoxypropan-2-yl)-1H-imidazole-4,5-dicarboxamide] was tested. Which IC50 did it give?
The IC50 was 210 nM.

Which IC50 does the source give for `COC(C)(C)CNC(=O)c1nc[nH]c1C(=O)N[C@H]1CC[C@H](C(=O)Nc2cc(C(F)(F)F)ccc2Cl)CC1` [Example 144, N^5-(trans-4-{[2-chloro-5-(trifluoromethyl)phenyl]carbamoyl}cyclohexyl)-N^4-(2-methoxy-2-methylpropyl)-1H-imidazole-4,5-dicarboxamide] here?
Its IC50 is 190 nM.

`CC(C)(O)CNC(=O)c1nc[nH]c1C(=O)N[C@H]1CC[C@H](C(=O)Nc2cc(C(F)(F)F)ccc2Cl)CC1` [Example 145, N^5-(trans-4-{[2-chloro-5-(trifluoromethyl)phenyl]carbamoyl}cyclohexyl)-N^4-(2-hydroxy-2-methylpropyl)-1H-imidazole-4,5-dicarboxamide] was tested. Which IC50 did it give?
The IC50 was 330 nM.

For `O=C(NCC1CCCO1)c1nc[nH]c1C(=O)N[C@H]1CC[C@H](C(=O)Nc2cc(C(F)(F)F)ccc2Cl)CC1` (stereo partly drawn) [Example 146, N^5-(trans-4-{[2-chloro-5-(trifluoromethyl)phenyl]carbamoyl}cyclohexyl)-N^4-(tetrahydrofuran-2-ylmethyl)-1H-imidazole-4,5-dicarboxamide], which IC50 is on record?
The IC50 was 150 nM.

How did the IC50 turn out when `CNC(=O)c1nc[nH]c1C(=O)N[C@H]1CC[C@H](C(=O)Nc2ncncc2Cl)CC1` [Example 147, N^5-{trans-4-[(5-chloropyrimidin-4-yl)carbamoyl]cyclohexyl}-N^4-methyl-1H-imidazole-4,5-dicarboxamide] was run?
Its IC50 is 150 nM.

For `O=C(N[C@H]1CC[C@]2(CCN(c3ccc(F)cc3Cl)C2=O)CC1)c1cnn2cccnc12` [Example 148, N-[(cis)-2-(2-chloro-4-fluorophenyl)-1-oxo-2-azaspiro[4.5]dec-8-yl]pyrazolo[1,5-a]pyrimidine-3-carboxamide], which IC50 is on record?
The IC50 was 3900 nM.

For `O=C(N[C@H]1CC[C@H](C(=O)Nc2cnc(C(F)(F)F)cc2Cl)CC1)c1cnn2cccnc12` [Example 149, N-(trans-4-{[4-chloro-6-(trifluoromethyl)pyridin-3-yl]carbamoyl}cyclohexyl)pyrazolo[1,5-a]pyrimidine-3-carboxamide], which IC50 is on record?
Its IC50 is 290 nM.

Which IC50 does the source give for `Cc1cc(NC(=O)[C@H]2CC[C@H](NC(=O)c3cnn4cccnc34)CC2)c(Cl)cc1F` [Example 150, N-{trans-4-[(2-chloro-4-fluoro-5-methylphenyl)carbamoyl]cyclohexyl}pyrazolo[1,5-a]pyrimidine-3-carboxamide] here?
Its IC50 is 170 nM.

With `Cc1cc(F)cc(Cl)c1NC(=O)[C@H]1CC[C@H](NC(=O)c2cnn3cccnc23)CC1` [Example 151, N-{trans-4-[(2-chloro-4-fluoro-6-methylphenyl)carbamoyl]cyclohexyl}pyrazolo[1,5-a]pyrimidine-3-carboxamide] as the compound, how does the IC50 read?
The IC50 was 470 nM.

With `CCN(c1ccc(F)cc1Cl)C(=O)[C@H]1CC[C@H](NC(=O)c2cnn3cccnc23)CC1` [Example 154, N-{trans-4-[(2-chloro-4-fluorophenyl)(ethyl)carbamoyl]cyclohexyl}pyrazolo[1,5-a]pyrimidine-3-carboxamide] as the compound, how does the IC50 read?
Its IC50 is 87 nM.

`CN(c1ccc(F)cc1Cl)C(=O)[C@H]1CC[C@H](NC(=O)c2cnn3cccnc23)CC1` [Example 155, N-{trans-4-[(2-chloro-4-fluorophenyl)(methyl)carbamoyl]cyclohexyl}pyrazolo[1,5-a]pyrimidine-3-carboxamide] was tested. Which IC50 did it give?
The IC50 was 140 nM.

For `CN(c1ccccc1)C(=O)[C@H]1CC[C@H](NC(=O)c2cnn3cccnc23)CC1` [Example 156, N-{trans-4-[methyl(phenyl)carbamoyl]cyclohexyl}pyrazolo[1,5-a]pyrimidine-3-carboxamide], which IC50 is on record?
Its IC50 is 390 nM.

For `CNC(=O)c1nc[nH]c1C(=O)N[C@H]1CC[C@H](C(=O)N(CCO)c2ccc(F)cc2Cl)CC1` [Example 157, N^5-{trans-4-[(2-chloro-4-fluorophenyl)(2-hydroxyethyl)carbamoyl]cyclohexyl}-N^4-methyl-1H-imidazole-4,5-dicarboxamide], which IC50 is on record?
The IC50 was 450 nM.

`CC1CCN(CCNC(=O)c2nc[nH]c2C(=O)N[C@H]2CC[C@@]3(CCN(c4ccc(F)cc4Cl)C3=O)CC2)CC1` [Example 160, N^5-[(trans)-2-(2-chloro-4-fluorophenyl)-1-oxo-2-azaspiro[4.5]dec-8-yl]-N^4-[2-(4-methylpiperidin-1-yl)ethyl]-1H-imidazole-4,5-dicarboxamide] was tested. Which IC50 did it give?
Its IC50 is 8 nM.

With `O=C(NCCN1CCCCC1)c1nc[nH]c1C(=O)N[C@H]1CC[C@@]2(CCN(c3ccc(F)cc3Cl)C2=O)CC1` [Example 161, N^5-[(trans)-2-(2-chloro-4-fluorophenyl)-1-oxo-2-azaspiro[4.5]dec-8-yl]-N^4-[2-(piperidin-1-yl)ethyl]-1H-imidazole-4,5-dicarboxamide] as the compound, how does the IC50 read?
The IC50 was 4.1 nM.

With `CC(C)NC(=O)c1nc[nH]c1C(=O)N[C@H]1CC[C@@]2(CCN(c3ccc(F)cc3Cl)C2=O)CC1` [Example 162, N^5-[(trans)-2-(2-chloro-4-fluorophenyl)-1-oxo-2-azaspiro[4.5]dec-8-yl]-N^4-isopropyl-1H-imidazole-4,5-dicarboxamide] as the compound, how does the IC50 read?
Its IC50 is 13 nM.

How did the IC50 turn out when `COCCNC(=O)c1nc[nH]c1C(=O)N[C@H]1CC[C@@]2(CCN(c3ccc(F)cc3Cl)C2=O)CC1` [Example 163, N^5-[(trans)-2-(2-chloro-4-fluorophenyl)-1-oxo-2-azaspiro[4.5]dec-8-yl]-N^4-(2-methoxyethyl)-1H-imidazole-4,5-dicarboxamide] was run?
Its IC50 is 13 nM.

For `O=C(NC1CC1)c1nc[nH]c1C(=O)N[C@H]1CC[C@@]2(CCN(c3ccc(F)cc3Cl)C2=O)CC1` [Example 165, N^5-[(trans)-2-(2-chloro-4-fluorophenyl)-1-oxo-2-azaspiro[4.5]dec-8-yl]-N^4-cyclopropyl-1H-imidazole-4,5-dicarboxamide], which IC50 is on record?
Its IC50 is 12 nM.

Which IC50 does the source give for `O=C(N[C@H]1CC[C@@]2(CCN(c3ccc(F)cc3Cl)C2=O)CC1)c1[nH]cnc1C(=O)N1CC(F)C1` [Example 166, N-[(trans)-2-(2-chloro-4-fluorophenyl)-1-oxo-2-azaspiro[4.5]dec-8-yl]-4-[(3-fluoroazetidin-1-yl)carbonyl]-1H-imidazole-5-carboxamide] here?
Its IC50 is 7.4 nM.
